The IC50 is the concentration that gives 50% inhibition. As usually defined, the inhibition is the percentage by which the read-out fell short of the control.

Molecules are shown by their SMILES. Where a name gives a salt, the structure may show the parent alone.

T1 sequence (P23975 whole entry): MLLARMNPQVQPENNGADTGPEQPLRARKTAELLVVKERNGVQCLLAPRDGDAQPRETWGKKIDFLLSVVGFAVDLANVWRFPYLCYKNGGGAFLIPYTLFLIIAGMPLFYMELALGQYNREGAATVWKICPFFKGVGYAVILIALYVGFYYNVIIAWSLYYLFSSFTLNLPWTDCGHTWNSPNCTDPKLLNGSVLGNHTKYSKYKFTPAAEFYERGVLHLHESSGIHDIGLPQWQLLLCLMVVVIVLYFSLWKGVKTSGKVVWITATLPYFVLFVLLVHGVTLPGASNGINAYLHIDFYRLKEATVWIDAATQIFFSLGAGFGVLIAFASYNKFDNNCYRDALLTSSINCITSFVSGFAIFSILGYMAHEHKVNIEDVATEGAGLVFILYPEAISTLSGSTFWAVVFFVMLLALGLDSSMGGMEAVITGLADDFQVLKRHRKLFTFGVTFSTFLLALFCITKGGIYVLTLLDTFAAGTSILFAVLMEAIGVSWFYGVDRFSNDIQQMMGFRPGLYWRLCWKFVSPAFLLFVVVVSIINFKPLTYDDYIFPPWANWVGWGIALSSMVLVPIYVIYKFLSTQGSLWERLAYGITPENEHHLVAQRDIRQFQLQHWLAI

One experiment addresses T1, human hNET (Homo sapiens, UniProt P23975).
T1 construct: expressed in transfected cells; host or cells: MDCK-Net6 (MDCK cells stably transfected with hNET)
Nature of the experiment: Functional norepinephrine reuptake assay, Procedure B (6,000 cells/well). The format is cell-based.
Conditions: not given
The essentials:
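MDCK cells stably expressing human NET, 6,000 cells/well, in HEPES-buffered saline pH 7.4 with ascorbic acid and 1 μM pargyline; compound preincubated 5 min at 37° C. ^3H norepinephrine uptake counted by scintillation; non-specific defined with 20 μM desipramine. IC50 from variable-slope sigmoidal nonlinear fit.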
Take `CNCCC[C@@H]1Cc2cc(F)ccc2N(c2c(F)cccc2F)S1(=O)=O` (single isomer, unassigned) [Example 156]: the IC50 is 27 nM.
Still for that read-out and setting: as for `CNCCC[C@@H]1Cc2ccccc2N(c2c(F)cccc2F)S1(=O)=O` (single isomer, unassigned) [Example 122], the figure is 5 nM.

The same experiment, now with this note: MDCK-Net6 cells, 6,000 cells/well, 16 nM 3H-norepinephrine; read-out: Procedure B hNET uptake IC50.
Regarding `CNCCCC1Cc2cc(F)ccc2N(c2ccc(F)cc2F)S1(=O)=O` (racemic) [Example 111, 3-[1-(2,4-difluorophenyl)-6-fluoro-2,2-dioxido-3,4-dihydro-1H-2,1-benzothiazin-3-yl]-N-methylpropan-1-amine], the IC50 amounted to 92 nM.
Same read-out and setting: as for `CC1CN(CC2Oc3ccccc3N(c3ccccc3)S2(=O)=O)CC(C)N1` (centres unmarked) [Example 142, 3-[(3,5-dimethylpiperazin-1-yl)methyl]-1-phenyl-1H-4,2,1-benzoxathiazine 2,2-dioxide], the figure is 1150 nM; as for `CNCCC[C@H]1Cc2ccccc2N(c2ccccn2)S1(=O)=O` (single isomer, unassigned) [Example 127], 1540 nM.
Regarding `CNCCCC1Cc2ccccc2N(c2ccc(F)cc2F)S1(=O)=O` (racemic) [Example 99, 3-[1-(2,4-difluorophenyl)-2,2-dioxido-3,4-dihydro-1H-2,1-benzothiazin-3-yl]-N-methylpropan-1-amine], the IC50 turned out to be 62 nM.
Consider `CNCCCC1Oc2cc(F)ccc2N(c2ccccc2F)S1(=O)=O` (centres unmarked) [Example 129, 3-[6-fluoro-1-(2-fluorophenyl)-2,2-dioxido-1H-4,2,1-benzoxathiazin-3-yl]-N-methylpropan-1-amine hydrochloride], for which the IC50 came to 95 nM.
For the molecule `CNCCC[C@H]1Cc2cc(F)ccc2N(c2ccc(F)cc2F)S1(=O)=O` (single isomer, unassigned) [Example 112], the IC50 was 100 nM.
In the case of `CNCCC[C@H]1Cc2cc(F)ccc2N(c2ccc(C)cc2F)S1(=O)=O` (single isomer, unassigned) [Example 149], the IC50 was 74 nM.
Turning to `CNCCC[C@H]1Cc2ccccc2N(c2cccnc2)S1(=O)=O` (single isomer, unassigned) [Example 124], the IC50 amounted to 1710 nM.
Still for that read-out and setting: as for `CC(C)CNCCC1Oc2ccccc2N(c2ccccc2)S1(=O)=O` (centres unmarked) [Example 28, N-[2-(2,2-dioxido-1-phenyl-1H-4,2,1-benzoxathiazin-3-yl)ethyl]-2-methylpropan-1-amine], the figure is 1760 nM.
On the same count and under the same terms, as for `CN(C)CC1Oc2ccccc2N(c2ccccc2)S1(=O)=O` (centres unmarked) [Example 134, 1-(2,2-dioxido-1-phenyl-1H-4,2,1-benzoxathiazin-3-yl)-N,N-dimethylmethanamine], the figure is 788 nM.
Same read-out and setting: the same measure for `CNCCCC1Sc2ccccc2N(c2ccc(Cl)cc2)S1(=O)=O` (centres unmarked) [Example 67, 3-[1-(4-chlorophenyl)-2,2-dioxido-1H-2,4,1-benzodithiazin-3-yl]-N-methylpropan-1-amine Hydrochloride]: 1500 nM.
With `CNCCC[C@@H]1Oc2cc3ccccc3cc2N(c2ccccc2)S1(=O)=O` (single isomer, unassigned) [Example 72, Hydrochloride], the IC50 stood at 115 nM.
On the same count and under the same terms, the same measure for `CNCCC[C@@H]1Cc2cc(F)ccc2N(c2ccccc2C)S1(=O)=O` (single isomer, unassigned) [Example 162]: 135 nM.
In the case of `CNCCCC1Oc2ccccc2N(c2cccc(C)c2)S1(=O)=O` (centres unmarked) [Example 16, N-methyl-3-[1-(3-methylphenyl)-2,2-dioxido-1H-4,2,1-benzoxathiazin-3-yl]propan-1-amine], the IC50 amounted to 361 nM.
Regarding `CNCCCC1Oc2cc(Cl)ccc2N(c2ccccc2)S1(=O)=O` (centres unmarked) [Example 45, 3-(6-chloro-2,2-dioxido-1-phenyl-1H-4,2,1-benzoxathiazin-3-yl)-N-methylpropan-1-amine], the IC50 was 114 nM.
On the same count and under the same terms, the same measure for `CNCCC[C@@H]1Cc2cc(F)ccc2N(c2ccc(C)cc2F)S1(=O)=O` (single isomer, unassigned) [Example 150]: 16 nM.
Turning to `CCNCC1Oc2ccccc2N(c2ccccc2)S1(=O)=O` (centres unmarked) [Example 136, N-[(2,2-dioxido-1-phenyl-1H-4,2,1-benzoxathiazin-3-yl)methyl]ethanamine], the IC50 was 1360 nM.
In the case of `CNCCC[C@H]1Cc2cc(F)ccc2N(c2ccccc2C)S1(=O)=O` (single isomer, unassigned) [Example 161], the IC50 is 143 nM.
Same read-out and setting: as for `CNCCCC1Oc2cc(OC)ccc2N(c2ccccc2)S1(=O)=O` (centres unmarked) [Example 52, 3-(6-methoxy-2,2-dioxido-1-phenyl-1H-4,2,1-benzoxathiazin-3-yl)-N-methylpropan-1-amine], the figure is 607 nM; as for `CNCCCC1Cc2cc(F)ccc2N(c2ccc(C)cc2F)S1(=O)=O` (racemic) [Example 148, 3-[6-fluoro-1-(2-fluoro-4-methylphenyl)-2,2-dioxido-3,4-dihydro-1H-2,1-benzothiazin-3-yl]-N-methylpropan-1-amine], 51 nM.
The same measure, in the same setting: as for `CNCCCC1Sc2ccccc2N(c2cccc(Cl)c2)S1(=O)=O` (centres unmarked) [Example 66, 3-[1-(3-chlorophenyl)-2,2-dioxido-1H-2,4,1-benzodithiazin-3-yl]-N-methylpropan-1-amine Hydrochloride], the figure is 2020 nM; as for `NCCC1Oc2ccccc2N(c2ccccc2)S1(=O)=O` (centres unmarked) [Example 24, 2-(2,2-dioxido-1-phenyl-1H-4,2,1-benzoxathiazin-3-yl)ethanamine], 583 nM; as for `CNCCCC1Sc2ccccc2N(c2ccc(F)cc2)S1(=O)=O` (centres unmarked) [Example 64, 3-[1-(4-fluorophenyl)-2,2-dioxido-1H-2,4,1-benzodithiazin-3-yl]-N-methylpropan-1-amine Hydrochloride], 1000 nM.
The same measure, in the same setting: as for `CNCC[C@H]1Oc2ccccc2N(c2ccccc2)S1(=O)=O` (single isomer, unassigned) [Example 104], the figure is 302 nM.
For `CNCCCC1Oc2cc(F)ccc2N(c2ccccc2)S1(=O)=O` (centres unmarked) [Example 46, 3-(6-fluoro-2,2-dioxido-1-phenyl-1H-4,2,1-benzoxathiazin-3-yl)-N-methylpropan-1-amine], the IC50 was 92.7 nM.
On the same count and under the same terms, as for `CN(CCCC1Oc2ccccc2N(c2ccccc2)S1(=O)=O)Cc1ccccc1` (centres unmarked) [Example 58, N-benzyl-3-(2,2-dioxido-1-phenyl-1H-4,2,1-benzoxathiazin-3-yl)-N-methylpropan-1-amine hydrochloride], the figure is 822 nM.

The same experiment, now with this note: MDCK-Net6 cells, 6,000 cells/well; Conc 6000 nM (6 μM); read-out: Procedure B hNET uptake (% inhibition).
`CNCC1Oc2ccccc2N(c2ccccc2)S1(=O)=O` (centres unmarked) [Example 144, 1-(2,2-dioxido-1-phenyl-1H-4,2,1-benzoxathiazin-3-yl)-N-methylmethanamine]: the inhibition at 6 µM was found to be 53%.
In the case of `O=S1(=O)C(CCCNC2CCC2)Oc2ccccc2N1c1ccccc1` (centres unmarked) [Example 41, N-[3-(2,2-dioxido-1-phenyl-1H-4,2,1-benzoxathiazin-3-yl)propyl]cyclobutanamine], the inhibition at 6 µM amounted to 50%.
Same read-out and setting: as for `O=S1(=O)C(CCCNC2CCCC2)Oc2ccccc2N1c1ccccc1` (centres unmarked) [Example 42, N-[3-(2,2-dioxido-1-phenyl-1H-4,2,1-benzoxathiazin-3-yl)propyl]cyclopentanamine], the figure is 48%.
As for `CCCCNCCCC1Oc2ccccc2N(c2ccccc2)S1(=O)=O` (centres unmarked) [Example 36, N-[3-(2,2-dioxido-1-phenyl-1H-4,2,1-benzoxathiazin-3-yl)propyl]butan-1-amine], the inhibition at 6 µM turned out to be 57%.

Source of the values: patent publication US20080171737A1 (Wyeth, priority 2006, published 2008).
